Results reported in US20260347330A1, “N-METHYL-D-ASPARTATE RECEPTOR (NMDAR) ANTAGONISTS AND USES THEREOF” (Bexson Biomedical, Inc., priority 2022, published 2026).
Read-outs that look alike come from different tables or passages of the source.

Assays:
[1] = molecular target: T1, human Dopamine Transporter (Homo sapiens, UniProt Q01959); assay: Human dopamine reuptake transporter (DAT) inhibition functional study, ASP+ uptake in CHO cells; assay type: cell-based; settings: at 10,000 nM, 10 μM ASP+, 1 h, CHO cells stably expressing human DAT
T1 construct: host or cells: CHO
T1 sequence (Q01959 whole entry): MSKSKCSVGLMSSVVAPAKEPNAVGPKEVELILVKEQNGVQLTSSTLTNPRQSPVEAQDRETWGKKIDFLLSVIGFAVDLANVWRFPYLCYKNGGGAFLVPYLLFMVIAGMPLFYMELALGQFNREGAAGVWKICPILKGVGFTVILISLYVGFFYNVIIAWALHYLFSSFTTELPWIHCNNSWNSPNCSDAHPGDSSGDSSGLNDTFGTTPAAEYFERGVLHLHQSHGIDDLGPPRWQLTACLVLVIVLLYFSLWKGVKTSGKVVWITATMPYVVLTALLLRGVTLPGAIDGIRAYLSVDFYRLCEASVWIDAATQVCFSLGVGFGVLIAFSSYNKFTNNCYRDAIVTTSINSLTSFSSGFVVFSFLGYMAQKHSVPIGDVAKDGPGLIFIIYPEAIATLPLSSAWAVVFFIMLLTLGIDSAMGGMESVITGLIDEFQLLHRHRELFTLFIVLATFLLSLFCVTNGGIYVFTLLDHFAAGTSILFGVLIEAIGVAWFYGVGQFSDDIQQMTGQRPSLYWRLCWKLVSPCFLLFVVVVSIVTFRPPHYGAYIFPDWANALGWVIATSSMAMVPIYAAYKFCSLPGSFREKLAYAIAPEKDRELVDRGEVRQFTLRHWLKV
Protocol: CHO cells stably expressing human Dopamine Transporter Protein (Valiscreen® Perkin Elmer RBHDATM-K) were cultured in 150 mm Tissue Culture dishes (Cell Treat 229651) at 37 ° C and 5% CO2. Ham's F-12 Nutrient Mix (Gibco, USA) was supplemented with 10% dialyzed FBS (Gibco, USA), 100 µg/ml Geneticin (Gibco, USA), and 100 units/ml Penicillin and Streptomycin (Gibco, USA) as the culture media. Cells were maintained on a consistent splitting and assay schedule and utilized until passage 30 (no change in control experiments were observed up to this point).
Cells were detached from their growth dishes using Trypsin-EDTA (0.25%) (Gibco, USA) at 70-80% confluency. The cells were counted and diluted in culture media to a density of 300,000 cells/mL. 200 µl of this mixture was added to each well of a clear bottom, black-walled 96 well plate (Coming 3603, USA). Plates were incubated in the laminar flow hood for one hour prior to being placed in the cell culture incubator in order to encourage even cell distribution across the entire well surface.
The next day, Krebs-Ringer HEPES (KRH) Buffer pH 7.4 was prepared (10 mM HEPES, 130 mM NaCl, 1.3 mM KCl, 2.2 mM CaCl2, 1.2 mM MgSO4, 1.2 mM KH2PO4) and titrated with 6N NaOH. This buffer was stored in a 4 ° C refrigerator for up to 4 days (after which it was discarded). Additionally, a solution containing KRH buffer and 330 µM Trypan Blue (Sigma T6146-25G), a solution of 20 mM ASP+(MedChem Express, NJ, USA) dissolved in DMSO, were both prepared. The 20 mM DMSO stock of ASP+ was diluted to a working concentration of 40 µM in KRH buffer. DMSO solutions of 40 mM GBR-12935 dihydrochloride (MedChem Express, NJ, USA) and 40 mM test compounds were also prepared. DMSO solutions of test compounds were then diluted to a range of […]-40 μM in KRH Buffer with 1% additional DMSO added to provide consistent DMSO concentration in all samples. […] The final DMSO concentration in each well was 0.3%. […] KRH buffer with DMSO “vehicle control” served as the total fluorescence control to represent the maximum amount of substrate uptake without DAT transporter inhibition.
At the time of assay, cell media was carefully removed from the wells via pipette aspiration. 100 μL of KRH buffer was then added to all wells. Both controls, non-specific and total fluorescence stock solutions were then added to the plate (50 µL of either 400 µM GBR-12935 or KRH DMSO buffer respectively). Additionally, GBR-12935 and test compounds were added to the plate ([…] for each sample). The 10,000 nM concentration of test compound was run in triplicate wells. Next, […] ASP+(final concentration of 10 μM) was added to each well initiating the experiment. Cells were placed in the cell culture incubator for one hour, at which point 20 µL of 330 µM Trypan Blue was added to each well to quench extracellular fluorescence. The cells were then placed in the microplate reader (BioTek Synergy Neo 2), using Gen5 Ver 3.11 software. The reader was preheated to 37 ° C and following a brief orbital shake, intracellular fluorescence was measured using a fluorescence intensity reading. Intracellular ASP+ was excited at 430 nm and emission read at 510 nm via a bottom read using the extended gain settings and high lamp energy setting.

hSERT = molecular target: T2, hSERT (Homo sapiens, UniProt P31645); assay: SERT [3H]-citalopram competition radioligand binding, hSERT expressing HEK293 cell membranes
T2 construct: no vendor name is printed for this cell line) RBHSTM-K; host or cells: HEK293
T2 sequence (P31645 whole entry): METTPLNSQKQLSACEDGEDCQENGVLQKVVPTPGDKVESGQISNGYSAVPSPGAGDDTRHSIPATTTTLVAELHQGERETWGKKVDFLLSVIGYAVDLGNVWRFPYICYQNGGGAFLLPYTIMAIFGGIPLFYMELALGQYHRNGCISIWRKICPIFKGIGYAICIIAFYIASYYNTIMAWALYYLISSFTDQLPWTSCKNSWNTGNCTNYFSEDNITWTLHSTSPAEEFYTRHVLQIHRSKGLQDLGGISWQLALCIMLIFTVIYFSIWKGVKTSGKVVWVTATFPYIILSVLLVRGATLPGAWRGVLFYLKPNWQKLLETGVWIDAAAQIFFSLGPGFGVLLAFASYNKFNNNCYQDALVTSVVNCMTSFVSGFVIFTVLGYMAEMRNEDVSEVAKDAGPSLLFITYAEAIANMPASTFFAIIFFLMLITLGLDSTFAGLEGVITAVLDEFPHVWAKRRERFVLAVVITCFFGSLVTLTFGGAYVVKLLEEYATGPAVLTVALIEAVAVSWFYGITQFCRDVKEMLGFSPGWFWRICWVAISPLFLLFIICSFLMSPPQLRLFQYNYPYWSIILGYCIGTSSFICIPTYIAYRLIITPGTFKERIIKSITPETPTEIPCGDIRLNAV
Protocol: Valiscreen Serotonin Transporter (SERT) (Human) Cell Line (HEK293 host cells, Product No: RBHSTM-K) grown in DMEM/F12 media with 10% FBS, 0.1 mg/ml Geneticin, 1% GlutaMAX, and 1% Penicillin-Streptomycin added were used to prepare SERT membrane fractions. Cells were grown in 150 mm dishes and harvested between 70-90% confluency, passages 5-20. Cells were detached using a buffer containing 1 mM HEPES and 2 mM EDTA (pH 7.4). After detachment, the cells were homogenized using a handheld homogenizer, and the lysate was centrifuged (30 minutes at 30,000×G) at 4 ° C The resulting pellet was resuspended in storage buffer containing 20 mM HEPES, 10 mM MgCl2, 0.1 mM EDTA, and 10% sucrose at pH 7.4. Protein concentration was determined via the Bradford method using Coomassie protein assay reagent (Sigma, USA) with Bovine Serum albumin (Sigma, USA) as standard.
Buffer containing 10 mM HEPES, 120 mM NaCl, and 5 mM KCl (pH 7.4) was added to SERT membranes to dilute to a final protein concentration of 5 µg/mL per well. Additionally, 0.5 nM [3H]-Citalopram (Perkin Elmer NET1039250UC) was added, along with unlabeled competitors at various concentrations or […] citalopram for nonspecific binding controls, bringing the total volume to 1 ml in a 96 well plate. SERT membranes were always added last to each well. The plates were covered from light with aluminum foil and incubated at ambient temperature ([…]) and placed on a mechanical shaker (250RPM) for 2 h. After 2 h, SERT protein was captured via vacuum filtration using a Unifilter-96 Cell Harvester (Perkin Elmer) over presoaked UniFilter-96 GF/C P Microplates (Perkin Elmer) and filters were washed with room temperature 10 mM HEPES, 120 mM NaCl, and 5 mM KCl buffer (pH 7.4) (3×1 mL). The filter plates were dried overnight in a fume hood. The next day, the SERT bound tritium was measured via liquid scintillation counting with MicroScint-O (Perkin Elmer), using a MicroBeta2 Plate Reader with 6-detectors scintillation counter (Perkin Elmer) at 55% efficiency. IC50 value estimates were determined in GraphPad Prism 9.3.1 using non-linear regression (single site fit) with log-concentration plotted against percent specific binding. […] For each experiments compounds were run in duplicate. N=1-3 repeats per compound.

NMDAR [2] = assay: NMDA receptor [3H]-MK-801 competition radioligand binding in rat forebrain; settings: [3H]-MK-801 1 nM competition, 1 mM glutamate, 0.1 mM glycine, pH 7.4, 2 h ambient, N = 1-4
Protocol: (§1) Rat forebrains from 7-8 week old Sprague-Dawley rats (BioChemed, USA) were homogenized in a buffer containing 10 mM HEPES and 1 mM EDTA (pH 7.4) using a mechanical homogenizer (Janke-Kunkel Ultra-Turrax T25). A 10 mL volume was used per brain for all steps involving suspension of the brain homogenate tissue. The brain homogenate was then centrifuged (15 minutes at 20,000 RPM and 4 ° C). The supernatant was carefully poured off and the pellet was resuspended in fresh 10 mM HEPES and 1 mM EDTA containing buffer. This process was repeated 5 times. Following the 5th centrifugation, the buffer was replaced with a buffer containing 10 mM HEPES (pH 7.4). The homogenate was then incubated in a water bath at 37 ° C in the dark (covered with foil). Centrifugation was then repeated 3 additional times and after resuspending in the HEPES buffer, the final homogenate was aliquoted and stored at −80 ° C until use. Protein concentration of the homogenate was determined by utilizing the Bradford method using Coomassie protein assay reagent (Sigma, USA) with Bovine Serum albumin (Sigma, USA) as a standard.
At the time of the experiment, the homogenate was diluted to a final concentration of […] in 10 mM HEPES buffer, 1 mM glutamate, and 0.1 mM glycine (pH 7.4) and combined with 1 nM (+)-[3H]-MK-801 (Perkin Elmer NET972250UC), unlabeled competitor compounds at varying concentrations, or 30 uM MK-801 to determine non-specific binding, in a total volume of 1 mL in a 96 well plate. The protein homogenate is always added to the wells last. The plates were covered with aluminum foil, and placed on a mechanical shaker (250 RPM) for 2 h at ambient temperature ([…]). After 2 h, the homogenate was collected by vacuum filtration using a Unifilter-96 Cell Harvester (Perkin Elmer) over presoaked UniFilter-96 GF/C P Microplates (Perkin Elmer) and filters were washed with room temperature 10 mM HEPES buffer (pH 7.4) (3×1 mL). The filter plates were dried overnight in a fume hood. The next day, the bound tritium was measured via liquid scintillation counting with […] MicroScint-O (Perkin Elmer) added per well, using a MicroBeta2 Plate Reader with 6-detectors scintillation counter (Perkin Elmer) at 55% efficiency. IC50 value estimates were determined in GraphPad Prism 9.3.1 using non-linear regression (single site fit) with log-concentration plotted against percent specific binding. Ki values were calculated using the equation of Cheng and Prusoff. […] Experiments were performed in duplicate. N=1-4 per compound.

NMDAR [3] = assay: Homologous binding experiments with MK-801; settings: rat forebrain
Protocol: as §1, with “The homogenate was then incubated in a water bath at 37 ° C in the dark (covered with foil). Centrifugation was then repeated 3 additional times and after resuspending in the HEPES buffer, the final homogenate was aliquoted and stored at −80 ° C until use.” left out
At the time of the experiment, the homogenate was diluted to a final concentration of […] in 10 mM HEPES buffer, 1 mM glutamate, and 0.1 mM glycine (pH 7.4) and combined with 1 nM (+)-[3H]-MK-801 (Perkin Elmer NET972250UC), unlabeled competitor compounds at varying concentrations, or 30 uM MK-801 to determine non-specific binding, in a total volume of 1 mL in a 96 well plate. […] IC50 value estimates were determined in GraphPad Prism 9.3.1 using non-linear regression (single site fit) with log-concentration plotted against percent specific binding. […]

[4] = 0.5 nM [3H]-citalopram competition, hSERT HEK293 membranes, pH 7.4, 2 h ambient, N = 1, read-out: SERT pKi (converted)

| Compound | inhibition at 10 µM [1] [%] | IC50 (hSERT) [µM] | NMDAR binding affinity pKi (mean ± SEM) (NMDAR [2]) | Ki (hSERT) [nM] | Ki (hSERT; [4]) [nM] | Kd (NMDAR [3]) [nM] |
| --- | --- | --- | --- | --- | --- | --- |
| NC(c1ccccc1)(C1CCCC1)C1CC1 (stereo not shown) [Compound 5, Cyclopentyl(cyclopropyl)(phenyl)methanamine] | 1.3 | > 10 | 6.23 ± 0.046 |  |  |  |
| C=CCC(N)(c1ccccc1)C1CCCC1 (stereo not shown) [Compound 6, 1-cyclopentyl-1-phenylbut-3-en-1-amine] | 23.1 |  | 5.89 ± 0.072 | 3160 |  |  |
| NC(CC1CCC1)(c1ccccc1)C1CCCC1 (stereo not shown) [Compound 9, 2-cyclobutyl-1-cyclopentyl-1-phenylethan-1-amine] | -4 | > 10 | 5.80 ± 0.095 |  |  |  |
| CC(N)(c1ccccc1)C1CCCCC1 (stereo not shown) [Compound 11, 1-cyclohexyl-1-phenylethan-1-amine] | 11.7 | > 10 | 6.09 ± 0.120 |  |  |  |
| CNC(C)(c1ccccc1)C1CCCC1 (stereo not shown) [Compound 15, 1-cyclopentyl-N-methyl-1-phenylethan-1-amine] | 18.2 |  | 6.56 ± 0.064 | 501 |  |  |
| CCNC(C)(c1ccccc1)C1CCCC1 (stereo not shown) [Compound 16, 1-cyclopentyl-N-ethyl-1-phenylethan-1-amine] | 16 |  | 6.93 ± 0.073 |  | 1120 |  |
| CC(C)NC(C)(c1ccccc1)C1CCCC1 (stereo not shown) [Compound 19, N-(1-cyclopentyl-1-phenylethyl)propan-2-amine] | 39.2 |  | 7.34 ± 0.041 |  | 151 |  |
| CCC(C)NC(C)(c1ccccc1)C1CCCC1 (stereo not shown) [Compound 20, N-(1-cyclopentyl-1-phenylethyl)butan-2-amine] | 56.7 |  | 7.35 ± 0.075 | 2450 |  |  |
| CC(c1ccccc1)(C1CCCCC1)N1CCCCC1 (stereo not shown) [Compound 23, 1-(1-cyclohexyl-1-phenylethyl)piperidine] | 71.6 |  | 5.52 ± .118 |  | 2630 |  |
| NC(c1ccccc1Cl)C1CCCC1 (stereo not shown) [Compound 29, (2-chlorophenyl)(cyclopentyl)methanamine] | 10.3 | > 10 | 5.47 ± 0.030 |  |  |  |
| C[C@]12N[C@H](Cc3ccccc31)c1ccccc12 [MK-801] |  |  |  |  |  | 1.67 |
